Test results as given in article PMC3855825 (Molecular and biochemical parasitology, 2012).
pIC50, pKi: −log10 of the molar value. “Also recorded” adds a separate entry of the source. Where two headings read alike, the source gives them in different places.

Legend:
TgDHOD = TgDHOD (Toxoplasma gondii, UniProt Q8MXD1); test: Inhibition of recombinant TgDHOD-VSSM, DCIP reduction assay with QD; conditions: for Effect on TgDHOD activity (in words): no concentration stated at the place; for Type of inhibition of TgDHOD (best fit): QD as variable substrate, saturating dihydroorotate, SigmaPlot12 fit; for Inhibition of TgDHOD (in words): inhibitor 1 mM, DCIP reduction assay with QD
HsDHOD [1] = conditions: read-out: HsDHOD IC50, cited from earlier work
PfDHOD [2] = conditions: read-out: PfDHOD IC50, cited from earlier work
TgDHOD-VSSM = target: T1, TgDHOD-VSSM (Toxoplasma gondii, UniProt Q8MXD1); test: Use of electron acceptors and substrate kinetics of TgDHOD-VSSM
T1 sequence (Q8MXD1 178-592): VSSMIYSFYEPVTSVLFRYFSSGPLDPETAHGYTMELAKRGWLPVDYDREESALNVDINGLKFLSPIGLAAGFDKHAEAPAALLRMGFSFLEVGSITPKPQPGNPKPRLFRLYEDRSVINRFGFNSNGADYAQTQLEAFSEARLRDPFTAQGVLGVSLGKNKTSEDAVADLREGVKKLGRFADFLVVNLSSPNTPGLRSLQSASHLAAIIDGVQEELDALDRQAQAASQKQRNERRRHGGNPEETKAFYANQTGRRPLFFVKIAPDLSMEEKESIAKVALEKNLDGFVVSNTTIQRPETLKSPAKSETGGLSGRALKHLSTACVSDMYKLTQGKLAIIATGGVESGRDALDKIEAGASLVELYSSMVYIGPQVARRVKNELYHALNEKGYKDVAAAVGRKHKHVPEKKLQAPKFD

HsDHOD [3] = conditions: read-out: Km for QD, HsDHOD; cited from earlier work
PfDHOD [4] = conditions: read-out: Km for quinone, recombinant PfDHOD; cited from earlier work
[5] = tested on: Saccharomyces cerevisiae complex III; conditions: read-out: IC50 for Saccharomyces cerevisiae complex III; cited from earlier work
human complex III = conditions: read-out: IC50 for human complex III; cited from earlier work
[6] = read-out: TgDHOD activity compared to the control

What does the source list for `Cc1cc(Nc2cc(F)c(C(F)(F)F)c(F)c2)n2ncnc2n1` [DSM190, N-(3,5-difluoro-4-(trifluoromethyl)phenyl)-5-methyl-[1,2,4]triazolo[1,5-a]pyrimidin-7-amine]?
Effect on TgDHOD activity (in words) (TgDHOD): poor inhibitor; pIC50 (HsDHOD [1]; ref 16 Gujjar et al., 2011): < 4.52; pIC50 (PfDHOD [2]; ref 16 Gujjar et al., 2011): 6.72

What does the source list for `CC(O)=C(C#N)C(=O)Nc1ccc(-c2cccc(Cl)c2Cl)cc1Cl` [MD249]?
Type of inhibition of TgDHOD (best fit) (TgDHOD): partial mixed inhibition; pIC50 (HsDHOD [1]; ref 17 Davies et al., 2009): 6.48; pIC50 (PfDHOD [2]; ref 17 Davies et al., 2009): 5.00

With `O=C(O)/C=C/C(=O)O` [Fumarate] as the compound, how does the “Activity as electron acceptor for TgDHOD (in words)” value (TgDHOD-VSSM) read?
Its value is “poor electron acceptor; also recorded: negligible activity”.

With `O=C(CC(=O)C(F)(F)F)c1cccs1` [TTFA, 4,4,4-trifluoro-1-(thienyl)-1,3-butanedione] as the compound, how does the “Inhibition of TgDHOD (in words)” value (TgDHOD) read?
Its value is “No significant inhibition”.

What about the “Effect on TgDHOD activity (in words)” value (TgDHOD) of the same compound?
Its value is “not significantly affected; also recorded: no effect”.

Which “Effect on TgDHOD activity (in words)” value (TgDHOD) does the source give for `Cc1cc(-n2c(=O)[nH]c(=O)n(C)c2=O)ccc1Oc1ccc(SC(F)(F)F)cc1` [toltrazuril, 1-(3-methyl-4(4′-trifluoromethylthiophenoxy)phenyl)-3-methyl-1,3,5-triazine-2,4,6-(1H,3H,5H)-trione] here?
The value was “little effect”.

What about the remaining activity at 500 µM (TgDHOD; [6]) of the same compound?
The remaining activity at 500 µM was 82.9%.

Which “kcat, background activity in the absence of ubiquinone” value (TgDHOD-VSSM; DCIP as only electron acceptor, 0.1 mM, 1 mM dihydroorotate) does the source give for `O=C1C(Cl)=CC(=Nc2ccc(O)cc2)C=C1Cl` [DCIP, 2,6 dichlorophenol-indophenol] here?
Its value is 28.1 ± 0.7 s⁻¹.

For `CCCCCCCCCCC1=C(C)C(=O)C(OC)=C(OC)C1=O` [QD, 2,3-dimethoxy-5-methyl-6-decyl-1,4-benzoquinone], which Km (HsDHOD [3]) is on record?
The Km was 14 µM.

With `CC1=CC(=O)c2ccccc2C1=O` [Menadione, 2-methyl-1,4-naphthoquinone] as the compound, how does the Km (PfDHOD [4]) read?
Its Km is 55 to 115 µM.

With `Cc1c(-c2ccc(-c3ccccc3F)cc2)nc2ccc(F)cc2c1C(=O)O` [brequinar, 6-fluoro-2-(2′-fluoro-1,1-biphenyl-4-yl)-3-methyl-4-quinoline carboxylic acid] as the compound, how does the “Inhibition of TgDHOD (in words)” value (TgDHOD) read?
Its value is “No significant inhibition”.

What about the “Effect on TgDHOD activity (in words)” value (TgDHOD) of the same compound?
The value was “not significantly affected; also recorded: not efficient inhibitors”.

For `COC1=C(OC)C(=O)C(C)=CC1=O` [Q0, 2,3-dimethoxy-5-methyl-1,4-benzoquinone], which Km (PfDHOD [4]) is on record?
The Km was 55 to 115 µM.

With `COc1ccccc1-c1ccc(NC(=O)C(C#N)=C(C)O)c(Cl)c1` [MD209, N-(3-chloro-2′-methoxybiphenyl-4-yl)-2-cyano-3-hydroxybut-2-enamide] as the compound, how does the pKi (TgDHOD) read?
Its pKi is 4.74.

And the “Type of inhibition of TgDHOD (best fit)” value (TgDHOD)?
The value was “partial mixed inhibition”.

And the pIC50 (HsDHOD [1]; ref 17 Davies et al., 2009)?
Its pIC50 is 6.70.

What about the pIC50 (PfDHOD [2]; ref 17 Davies et al., 2009) of the same compound?
Its pIC50 is 5.07.

Which “Effect on TgDHOD activity (in words)” value (TgDHOD) does the source give for `COc1cc(-c2ccc(Nc3ccccc3C(=O)O)c(OC)c2)ccc1Nc1ccccc1C(=O)O` [redoxal, (2,2′-[3,3′-dimethoxy[1,1′-biphenyl]-4,4′-diyl]diimino)bis-benzoic acid] here?
The value was “not efficient inhibitors”.

With `O=C1C(O)=C([C@H]2CC[C@H](c3ccc(Cl)cc3)CC2)C(=O)c2ccccc21` [atovaquone, trans-2-[4-(chlorophenyl)cyclohexyl]-3-hydroxy-1,4-naphthoquinone] as the compound, how does the pIC50 [5] read?
The pIC50 was 7.40.

And the “Effect on TgDHOD activity (in words)” value (TgDHOD)?
Its value is “not significantly affected”.

And the “Effect on TgDHOD activity (in words)” value (TgDHOD; listed as Atovaquone)?
Its value is “little effect”.

And the remaining activity at 100 µM (TgDHOD; [6])?
Its remaining activity at 100 µM is 80.6%.

What about the pIC50 (human complex III) of the same compound?
Its pIC50 is 6.40.
